Results: article PMC10581904, “Structural basis for abscisic acid efflux mediated by ABCG25 in Arabidopsis thaliana” (Nature Plants, 2023)

Legend:
[1] = biological target: T1, ABCG25 (Arabidopsis thaliana, UniProt Q84TH5); experiment: stimulation of ATPase activity (colorimetric Pi release), allosteric sigmoidal fit; assay type: biochemical; set-up: full-length, N-terminal Flag tag, baculovirus / Sf9 cells, homodimer, purified in DDM or digitonin (with CHS extraction)
T1 sequence (Q84TH5 1-662): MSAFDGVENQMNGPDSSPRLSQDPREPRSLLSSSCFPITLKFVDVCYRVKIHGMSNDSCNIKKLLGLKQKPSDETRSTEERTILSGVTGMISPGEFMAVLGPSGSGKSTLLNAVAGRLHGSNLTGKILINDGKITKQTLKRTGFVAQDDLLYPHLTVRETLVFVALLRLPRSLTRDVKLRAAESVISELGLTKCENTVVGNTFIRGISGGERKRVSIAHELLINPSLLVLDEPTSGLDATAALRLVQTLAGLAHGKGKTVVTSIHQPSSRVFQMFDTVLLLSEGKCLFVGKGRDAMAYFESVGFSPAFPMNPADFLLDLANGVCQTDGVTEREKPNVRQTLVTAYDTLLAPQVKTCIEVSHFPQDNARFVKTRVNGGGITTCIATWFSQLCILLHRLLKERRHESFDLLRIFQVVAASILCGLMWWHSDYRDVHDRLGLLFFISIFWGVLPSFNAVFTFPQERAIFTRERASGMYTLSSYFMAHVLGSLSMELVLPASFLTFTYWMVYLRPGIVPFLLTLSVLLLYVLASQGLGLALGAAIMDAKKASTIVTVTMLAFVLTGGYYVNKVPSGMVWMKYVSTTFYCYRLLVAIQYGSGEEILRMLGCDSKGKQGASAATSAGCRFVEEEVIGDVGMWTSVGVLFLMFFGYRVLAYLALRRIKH

[2] = biological target: T1, ABCG25; experiment: [3H]-ABA loading and efflux assays in Sf9 cells; assay type: cell-based; set-up: full-length, N-terminal Flag tag, baculovirus / Sf9 cells; conditions: 6.6 nM, pH 5.5; labelled compound
[3] = biological target: T1, ABCG25; experiment: ATPase activity in liposomes reconstituted with or without cholesterol; assay type: biochemical; set-up: full-length, N-terminal Flag tag, baculovirus / Sf9 cells, homodimer, purified in DDM or digitonin (with CHS extraction); conditions: lipid:cholesterol 9:1 (w/w), proteoliposomes; direct action not proven (sterol identity in the cavity not settled)
[4] = substrate: Nc1ncnc2c1ncn2[C@@H]1O[C@H](COP(=O)(O)OP(=O)(O)OP(=O)(O)O)[C@@H](O)[C@H]1O; experiment: ATPase activity (colorimetric Pi release), Michaelis-Menten fit; assay type: biochemical, Arabidopsis thaliana; conditions: 10 mM MgCl2, pH 7.4, 37 °C, detergent micelle (0.01% DDM), no ABA
[5] = biological target: the molecule itself; experiment: cryo-EM structure; single particle analysis of purified ABCG25WT in 25 mM HEPES-NaOH pH 7.4, 150 mM NaCl, 0.03% digitonin; apo or with 2 mM ABA; C2 symmetry applied
[6] = biological target: the molecule itself; experiment: cryo-EM structure; single particle analysis of purified E232Q ABCG25 in digitonin, incubated with 5 mM ATP and 10 mM MgCl2 on ice for 60 min

CC1=CC(=O)CC(C)(C)[C@@]1(O)/C=C/C(C)=C/C(=O)O [ABA, (S)-(+)-Abscisic acid]
EC50 [1]: 680 nM

CC1=CC(=O)CC(C)(C)[C@@]1(O)/C=C/C(C)=C\C(=O)O [[3H]-ABA]
residual [3H]-ABA [2]: residual [^3H]-ABA substantially decreased in cells expressing ABCG25

CC(C)CCC[C@@H](C)[C@H]1CC[C@H]2[C@@H]3CC=C4C[C@@H](O)CC[C@]4(C)[C@H]3CC[C@]12C [cholesterol]
ATPase activity [3]: cholesterol was added during liposomes reconstitution, the ATPase activity of ABCG25 was significantly reduced

B1: wild-type ABCG25 from Arabidopsis thaliana (natural protein, UniProt Q84TH5 1-662, looked up)
chain: MSAFDGVENQMNGPDSSPRLSQDPREPRSLLSSSCFPITLKFVDVCYRVKIHGMSNDSCNIKKLLGLKQKPSDETRSTEERTILSGVTGMISPGEFMAVLGPSGSGKSTLLNAVAGRLHGSNLTGKILINDGKITKQTLKRTGFVAQDDLLYPHLTVRETLVFVALLRLPRSLTRDVKLRAAESVISELGLTKCENTVVGNTFIRGISGGERKRVSIAHELLINPSLLVLDEPTSGLDATAALRLVQTLAGLAHGKGKTVVTSIHQPSSRVFQMFDTVLLLSEGKCLFVGKGRDAMAYFESVGFSPAFPMNPADFLLDLANGVCQTDGVTEREKPNVRQTLVTAYDTLLAPQVKTCIEVSHFPQDNARFVKTRVNGGGITTCIATWFSQLCILLHRLLKERRHESFDLLRIFQVVAASILCGLMWWHSDYRDVHDRLGLLFFISIFWGVLPSFNAVFTFPQERAIFTRERASGMYTLSSYFMAHVLGSLSMELVLPASFLTFTYWMVYLRPGIVPFLLTLSVLLLYVLASQGLGLALGAAIMDAKKASTIVTVTMLAFVLTGGYYVNKVPSGMVWMKYVSTTFYCYRLLVAIQYGSGEEILRMLGCDSKGKQGASAATSAGCRFVEEEVIGDVGMWTSVGVLFLMFFGYRVLAYLALRRIKH
notes: ABCG25, Arabidopsis thaliana, UniProt Q84TH5, full length; Homodimer of a half-transporter (one NBD and one TMD per chain); No cleavage of the Flag tag is described; the protein was eluted with Flag peptide; also called ABCG25WT; WT
Km [4]: 790 µM
stoichiometry N [5]: 2

B2: ABCG25 E232Q catalytic mutant (natural protein, Arabidopsis thaliana, UniProt Q84TH5 1-662, looked up)
chain: MSAFDGVENQMNGPDSSPRLSQDPREPRSLLSSSCFPITLKFVDVCYRVKIHGMSNDSCNIKKLLGLKQKPSDETRSTEERTILSGVTGMISPGEFMAVLGPSGSGKSTLLNAVAGRLHGSNLTGKILINDGKITKQTLKRTGFVAQDDLLYPHLTVRETLVFVALLRLPRSLTRDVKLRAAESVISELGLTKCENTVVGNTFIRGISGGERKRVSIAHELLINPSLLVLDQPTSGLDATAALRLVQTLAGLAHGKGKTVVTSIHQPSSRVFQMFDTVLLLSEGKCLFVGKGRDAMAYFESVGFSPAFPMNPADFLLDLANGVCQTDGVTEREKPNVRQTLVTAYDTLLAPQVKTCIEVSHFPQDNARFVKTRVNGGGITTCIATWFSQLCILLHRLLKERRHESFDLLRIFQVVAASILCGLMWWHSDYRDVHDRLGLLFFISIFWGVLPSFNAVFTFPQERAIFTRERASGMYTLSSYFMAHVLGSLSMELVLPASFLTFTYWMVYLRPGIVPFLLTLSVLLLYVLASQGLGLALGAAIMDAKKASTIVTVTMLAFVLTGGYYVNKVPSGMVWMKYVSTTFYCYRLLVAIQYGSGEEILRMLGCDSKGKQGASAATSAGCRFVEEEVIGDVGMWTSVGVLFLMFFGYRVLAYLALRRIKH
notes: ABCG25, Arabidopsis thaliana, UniProt Q84TH5, full length, with E232Q in the Walker B motif of the NBD; Made and purified in the same way as the wild type; incubated with ATP and Mg2+ before grid preparation; also called ABCG25EQ; E232Q ABCG25
stoichiometry N [6]: 2
